# In paper PMC8434134, “Biflavonoids from Selaginella doederleinii as Potential Antitumor Agents for Intervention of Non-Small Cell Lung Cancer” (Molecules, 2021):
# Tests used:
# A549 cells [1] = experiment: MTT antiproliferative assay, A549; type: cell-based, human; settings: mean of n = 3
# Description: (§1) To evaluate the anti-NSCLC activity of compounds 1–5, we tested their inhibitory effect on the proliferation of two NSCLC cell lines (A549 and H1299) as well as human normal embryonic lung cell line MRC-5 by the MTT assay using Cis-platin (DDP) as a positive control. […] Among them, compounds 1–3 were further studied for their potential apoptosis-mediated death of A549 cells because of their promising antiproliferative activity against NSCLC cells.
# (§2) Human lung carcinoma cell lines (A549), human lung adenocarinoma epithelial cell lines (H1299) and human normal embryonic lung cell lines (MRC-5) were purchased from the Chinese Academy of Sciences (Shanghai). H1299 and MRC-5 cells were maintained in RPMI1640 medium, and A549 cell lines were maintained in MEN medium. Both media were supplemented with 10% fetal bovine serum. All of the cell lines were grown at 37 °C in a 5% CO2 atmosphere. The cell lines mentioned above were checked for mycoplasma contamination, and no contamination was observed.
# (§3) Cytotoxicity of test compounds was assessed by the MTT assay. A549, H1299 and MRC-5 cells at a final density (3000 cells/well) were placed in 96-well cell plates and treated with or without different concentrations of the test compounds for 24 h. At the end of the treatment, 3-(4,5-dimethyl-2-thiazolyl)-2,5-diphenyl-2-H-tetrazolium bromide (MTT, […], 5 mg/mL) was added into each well, and the cells were further incubated for 4 h. The resulting formazan crystals were dissolved in […] of DMSO and the absorbance was read spectrophotometrically at 570 nm using an enzyme-linked immunosorbent assay plate reader. Experiments were conducted in triplicate. Inhibition rate (%) = [(Acontrol − Atreated)/Acontrol] × 100%. IC50 value represents the half of maximal inhibitory concentration.
# survivin = experiment: Western blot, survivin expression in A549 cells; type: cell-based, human; settings: 3 μM, 24 h, GAPDH as control
# Experimental: (§4) The X-linked mammalian inhibitor of apoptosis protein (XIAP) and survivin, known as the inhibitor-of-apoptosis protein (IAP) members, play an important regulatory role in the caspase-dependent apoptosis. Therefore, the Western blot assay experiments were further performed to examine whether the inhibition of XIAP and survivin were involved in compounds 1–3 induced apoptosis.
# (§5) A549 cells (1 × 10^5/well) were cultured in six-well plates overnight and treated in triplicate with vehicle DMSO (0.1%, v/v) alone, or with indicated compound at 3 μM for 24 h. The cells were harvested and lysed with cell lysis buffer containing protease and phosphatase inhibitor cocktails (Beyotime, Shanghai, China). The concentrations of protein were determined using a BCA protein assay kit (Beyotime, Shanghai, China) and equalized before loading. Samples were denatured and subjected to SDS-PAGE gels followed by transfer to PVDF membrane and probed with specific antibodies against cleaved caspase-3, caspase-3, survivin, XIAP, β-actin, and GAPDH (Abcam, Shanghai, China), and then incubated with the secondary antibodies diluted in TBST. Finally, the protein bands were detected with ECL Western Blotting Kit according to the manufacturer’s specifications. Eventually, films were obtained and the light density of the target bar was analyzed by Image J software.
# MRC-5 cells = experiment: MTT cytotoxicity assay, non-cancer MRC-5; type: cell-based; settings: mean of n = 3, non-cancer cells
# Description: as §1, §2, §3
# A549 cells [2] = experiment: FITC-Annexin V/PI apoptosis assay by flow cytometry; type: cell-based, human; settings: 3 μM, 24 h
# Experimental: Subsequently, to further verify the apoptosis induction potential of compounds 1–3, quantification of Annexin V-FITC/PI double positive cells was performed using flow cytometry analysis. A549 cells were incubated with indicated compounds, and the percentages of apoptotic A549 cells were determined by FITC-Annexin V and PI staining and flow cytometry.
# Cells were incubated in six-well plates (1 × 10^5/well) and treated with vehicle control (i.e., 1% DMSO in buffer) or compounds 1–3 at 3 μM for 24 h, respectively. The collected cells were harvested, washed with PBS, and then stained with FITC-Annexin-V and PI. Apoptosis was determined with flow cytometry.
# XIAP = experiment: Western blot, XIAP expression in A549 cells; type: cell-based, human; settings: 3 μM, 24 h, GAPDH as control
# Experimental: as §4, §5
# cleaved caspase-3 = experiment: Western blot, cleaved caspase-3 level in A549 cells; type: cell-based, human; settings: 3 μM, 24 h, β-actin as control
# Experimental: (§6) Furthermore, to elucidate the mechanism underlying the apoptosis-inducing activity of compounds 1–3, we examined their regulatory effect on the expression of caspase-3/cleaved-caspase-3, which are hallmarks of apoptosis.
# as §5
# H1299 cells = experiment: MTT antiproliferative assay, H1299; type: cell-based, human; settings: mean of n = 3
# Description: as §1, §2, §3
# A549 cells [3] = experiment: Cell cycle analysis, PI staining and flow cytometry; type: cell-based, human; settings: 24 h
# Experimental: In addition to apoptosis, the induction of cell cycle arrest is an important means to control the growth and development of cancer cells. To investigate whether 3 suppressed the cells’ growth by arresting the cell cycle, we performed the experiment where cell cycle distribution was analyzed with flow cytometry after staining the DNA with propidium iodide (PI).
# A549 cells were treated with vehicle control (i.e., 1% DMSO in buffer) or compound 3 at indicated concentration for 24 h, respectively. The cells were harvested, washed, then fixed with 70% ethanol at −20 °C for 8 h, and incubated with PI/RNase staining buffer (BD Pharmingen) for 15 min at room temperature (25 °C). The DNA content in the different groups of cells was assessed with flow cytometry and analyzed by the software MODFIT.
# caspase-3 = experiment: Western blot, caspase-3 level in A549 cells; type: cell-based, human; settings: 3 μM, 24 h, β-actin as control
# Experimental: as §6, §5
# [4] = Homo sapiens, A549, 24 h treatment
# [5] = Homo sapiens, MRC5, 24 h treatment
# [6] = Homo sapiens, NCI-H1299, 24 h treatment
Compound,IC50 (A549 cells [1]; [4]) [µM],level of survivin expression (survivin),IC50 (MRC-5 cells; [5]) [µM],apoptosis incidence in A549 cells (A549 cells [2]) [%],level of XIAP expression (XIAP),relative level of cleaved caspase-3 (cleaved caspase-3),IC50 (H1299 cells; [6]) [µM],"G0/G1-phase cells (gate C in Figure 9A) (A549 cells [3]; 5 μM, control 60.8%) [%]","cell cycle arrest, phase (A549 cells [3])","percentage of cells at the S phase (A549 cells [3]; control 10.6%, concentration not in the sentence (5 μM by Figure 9)) [%]",relative level of caspase-3 (caspase-3),IC50 (A549 cells [1]; 24 h treatment) [µM],IC50 (MRC-5 cells; 24 h treatment) [µM],IC50 (H1299 cells; 24 h treatment) [µM]
"COc1cc(O)c2c(=O)c(Oc3ccc(-c4cc(=O)c5c(O)cc(O)cc5o4)cc3)c(-c3ccc(O)cc3)oc2c1 [Compound 3, 7-O-methyldelicaflavone]",2.3,suppressed,> 100,82.4,suppressed,upregulation,4,45.3,S phase,24.8,upregulation,–,–,–
"Cc1c(O)cc2oc(-c3ccc(Oc4c(-c5ccc(O)cc5)oc5cc(O)cc(O)c5c4=O)cc3)cc(=O)c2c1O [Compound 2, 6″-methyldelicaflavone]",2.8,–,> 100,80.3,–,–,7.3,–,–,–,–,–,–,–
"Cc1c(O)cc2c(c1O)C(=O)C[C@@H](c1ccc(Oc3c(-c4ccc(O)cc4)oc4cc(O)cc(O)c4c3=O)cc1)O2 [Compound 4, (2″S)-6″-methyl-2″,3″-dihydrodelicaflavone]",3.1,–,58.2,–,–,–,6.8,–,–,–,–,–,–,–
"O=C1C[C@@H](c2ccc(Oc3c(-c4ccc(O)cc4)oc4cc(O)cc(O)c4c3=O)cc2)Oc2cc(O)cc(O)c21 [Compound 1, (2″S)-2″,3″-dihydrodelicaflavone]",3.1,–,> 100,41.3,–,–,7.3,–,–,–,–,–,–,–
"N.N.[Cl][Pt][Cl] [DDP, Cis-platin, reference compound]",–,–,–,–,–,enhanced,–,–,–,–,enhanced,13.3,49,24.5
"O=c1cc(-c2ccc(Oc3c(-c4ccc(O)cc4)oc4cc(O)cc(O)c4c3=O)cc2)oc2cc(O)cc(O)c12 [Compound 5, delicaflavone]",7.9,–,36.8,–,–,–,8.4,–,–,–,–,–,–,–
